# Earlier results as cited in patent publication US8293789B2, “Method of preparing a latanoprost opthalmic solution and the resulting solution” (priority 2004, dated 2012).
# Legend:
# [1] = test system: patients with open angle glaucoma or ocular hypertension; conditions: for circadian / nocturnal reduction of intraocular pressure: day versus night
# [2] = not given; remark: listed apart in the source
SMILES,circadian / nocturnal reduction of intraocular pressure [1],"solubility in organic solvents (acetone, ethanol, ethyl acetate, isopropanol, methanol and octanol)",solubility in acetonitrile (acetonitrile),solubility in water (water),"effectiveness of one sole daily application versus double daily application of other glaucoma agents ([1]; latanoprost 0.005%, patients with open angle glaucoma or ocular hypertension)","patients with a reduction in the intraocular pressure of at least 30% ([1]; patients treated with latanoprost, after 6 months of treatment)","effectiveness as hypotensive agent compared with unoprostone ([1]; patients, versus unoprostone)",time to peak concentration in the aqueous humor ([2]; after local administration),"plasmatic mid life ([2]; in humans, sentence follows statements on latanoprost acid)","time to maximum concentration in the aqueous humor ([2]; studies on humans, following administration)"
CCN[C@H]1C[C@H](C)S(=O)(=O)c2sc(S(N)(=O)=O)cc21 [Dorzolamide],less effective than latanoprost,–,–,–,–,–,–,–,–,–
"CC(C)OC(=O)CCC/C=C\C[C@@H]1[C@@H](CC[C@@H](O)CCc2ccccc2)[C@H](O)C[C@@H]1O [latanoprost, isopropilic ester of the prostaglandin F2α 17-phenyl-13,14dihydro]",more uniform circadian reduction,freely soluble,highly soluble,practically insoluble,at least as effective,52%,better results,2 h,17 min,approximately two
CC(C)(C)NC[C@H](O)COc1nsnc1N1CCOCC1 [timolol],less effective during the night,–,–,–,–,–,–,–,–,–
